Measured values published in US20240158446A1, “CYCLIC COMPOUND HAVING SELECTIVE INHIBITORY ACTION ON KRAS OVER HRAS AND NRAS” (CHUGAI SEIYAKU KABUSHIKI KAISHA, priority 2021, published 2024).
*1 amine or outer side, *2 acyl side, *3 side chain or, on linkers, in order; H or OH if unused. Where a SMILES comes first, the peptide text is derived from it. Bridges are numbered along the chain shown (N, C = ends). [ ]: non-standard residue; d: D form. The star is where a group is joined. hPhe(3-Cl-4-CF3) = N[C@@H](CCc1ccc(C(F)(F)F)c(Cl)c1)C(=O)O; X36 = Cc1ccc(C[C@@H](C(=O)[*:2])N(CCC(F)(F)F)[*:1])cc1; NPrPhe(4-CF3) = CCCN[C@@H](Cc1ccc(C(F)(F)F)cc1)C(=O)O; NMeAbu(4,4,4-F3) = CN[C@@H](CC(F)(F)F)C(=O)O; NMeGly(cPent) = CN[C@H](C(=O)O)C1CCCC1; Pro(4,4-F2) = O=C(O)[C@@H]1CC(F)(F)CN1; NMeD = CN[C@@H](CC(=O)O)C(=O)O; NMeL = CN[C@@H](CC(C)C)C(=O)O; Morpholide = C1CN(*)CCO1; Ac5c = NC1(C(=O)O)CCCC1; Aze = O=C(O)[C@@H]1CCN1; Ac4c = NC1(C(=O)O)CCC1; Sar = CNCC(=O)O

Tests used:
[1] = biological target: GDP-bound KRAS wild-type protein (Homo sapiens, UniProt P01116); assay: Binding to KRAS by surface plasmon resonance (SPR), Single Cycle Kinetics; conditions: SPR Single Cycle Kinetics, GDP-bound KRAS wild-type protein, 1:1 binding model; read-out: KRAS KD
[2] = biological target: GDP-bound NRAS wild-type protein (Homo sapiens, UniProt P01111); assay: Binding to NRAS by surface plasmon resonance (SPR), Single Cycle Kinetics; conditions: for NRAS/KRAS (ratio of KD value for NRAS to KD value for KRAS): SPR, GDP-bound NRAS wild-type protein vs GDP-bound KRAS wild-type protein
[3] = biological target: GDP-bound HRAS wild-type protein (Homo sapiens, UniProt P01112); assay: Binding to HRAS by surface plasmon resonance (SPR), Single Cycle Kinetics; conditions: for HRAS/KRAS (ratio of KD value for HRAS to KD value for KRAS): SPR, GDP-bound HRAS wild-type protein vs GDP-bound KRAS wild-type protein
Chain of GDP-bound HRAS wild-type protein (P01112 whole entry): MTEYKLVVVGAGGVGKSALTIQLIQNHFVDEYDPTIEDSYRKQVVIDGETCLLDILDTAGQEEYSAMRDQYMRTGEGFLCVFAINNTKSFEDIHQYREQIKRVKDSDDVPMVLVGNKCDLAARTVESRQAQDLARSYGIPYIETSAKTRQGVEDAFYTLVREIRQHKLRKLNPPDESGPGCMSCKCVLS

Chain of GDP-bound NRAS wild-type protein (P01111 whole entry): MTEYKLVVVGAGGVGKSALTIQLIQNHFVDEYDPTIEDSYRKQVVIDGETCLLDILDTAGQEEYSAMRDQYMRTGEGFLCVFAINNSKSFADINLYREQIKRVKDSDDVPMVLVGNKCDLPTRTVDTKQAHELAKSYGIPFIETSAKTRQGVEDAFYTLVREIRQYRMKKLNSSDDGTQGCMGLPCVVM
Chain of GDP-bound KRAS wild-type protein (P01116 whole entry): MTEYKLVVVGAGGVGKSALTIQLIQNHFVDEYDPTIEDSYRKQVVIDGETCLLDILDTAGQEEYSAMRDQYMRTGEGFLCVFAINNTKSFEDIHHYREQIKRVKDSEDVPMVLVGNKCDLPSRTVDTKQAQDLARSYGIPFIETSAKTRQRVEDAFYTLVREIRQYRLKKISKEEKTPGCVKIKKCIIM

Row | Structure (SMILES) | Kd [1] | NRAS/KRAS (ratio of KD value with respect to GDP-bound NRAS wild-type protein to KD value with respect to KRAS) ([2]; SPR KD ratio NRAS/KRAS, class symbols) | HRAS/KRAS (ratio of KD value with respect to GDP-bound HRAS wild-type protein to KD value with respect to KRAS) ([3]; SPR KD ratio HRAS/KRAS, class symbols) | NRAS/KRAS (ratio of KD value for NRAS to KD value for KRAS) [2] | HRAS/KRAS (ratio of KD value for HRAS to KD value for KRAS) [3]
1 | CCO[C@@H]1C[C@H]2C(=O)NC3(CC(C)(C)C3)C(=O)N(C)[C@@H](C3CCCC3)C(=O)N(C)[C@H](C(=O)N3CCCC3)CC(=O)N(C)[C@H]3CCCC/C=C/c4ccc(cc4)C[C@@H](C(=O)N(C)CC(=O)N[C@@H](CCc4ccc(Cl)c(Cl)c4)C(=O)N2C1)N1CC/C=C\C[C@@H](C1=O)N(C)C(=O)CN(C)C(=O)[C@H]([C@@H](C)CC)NC3=O [PP2593] | 0.15 nM | A (a compound having 10 or more and less than 20 is denoted as A) | A (a compound having 10 or more and less than 20 is denoted as A) | – | –
2 | CCCN1C(=O)[C@@H]2CCN2C(=O)CN(C)C(=O)[C@H]([C@@H](C)CC)NC(=O)[C@H](CC(C)C)N(C)C(=O)C[C@@H](C(=O)N2CCOCC2)N(C)C(=O)[C@H](C2CCCC2)N(C)C(=O)C2(CCCC2)NC(=O)[C@@H]2CC(F)(F)CN2C(=O)[C@H](CCc2ccc(C(F)(F)F)c(Cl)c2)NC(=O)CN(C)C(=O)[C@@H]1Cc1ccc(C(F)(F)F)cc1 [PP0408] ([NMeL]I[Sar][Aze][NPrPhe(4-CF3)][Sar][hPhe(3-Cl-4-CF3)][Pro(4,4-F2)][Ac5c][NMeGly(cPent)][NMeD]-Morpholide; lactam N-11) | 0.094 nM | – | – | C (A compound having a KD ratio of 0.1 or more and less than 3 is denoted as C) | B (a compound having 3 or more and less than 10 is denoted as B)
3 | CCCN1C(=O)CN(C)C(=O)CN(C)C(=O)[C@H]([C@@H](C)CC)NC(=O)[C@H](CC(C)C)N(C)C(=O)C[C@@H](C(=O)N2CCOCC2)N(C)C(=O)[C@H](C2CCCC2)N(C)C(=O)C2(CCC2)NC(=O)[C@@H]2CC(F)(F)CN2C(=O)[C@H](CCc2ccc(C(F)(F)F)c(Cl)c2)NC(=O)CN(C)C(=O)[C@@H]1Cc1ccc(C(F)(F)F)cc1 [PP0207] ([NMeL]I[Sar][Sar][NPrPhe(4-CF3)][Sar][hPhe(3-Cl-4-CF3)][Pro(4,4-F2)][Ac4c][NMeGly(cPent)][NMeD]-Morpholide; lactam N-11) | 0.066 nM | – | – | B (a compound having 3 or more and less than 10 is denoted as B) | C (A compound having a KD ratio of 0.1 or more and less than 3 is denoted as C)
4 | CCCN1C(=O)CN(C)C(=O)CN(C)C(=O)[C@H]([C@@H](C)CC)NC(=O)[C@H](CC(F)(F)F)N(C)C(=O)C[C@@H](C(=O)N2CCOCC2)N(C)C(=O)[C@H](C2CCCC2)N(C)C(=O)C2(CCCC2)NC(=O)[C@@H]2CC(F)(F)CN2C(=O)[C@H](CCc2ccc(C(F)(F)F)c(Cl)c2)NC(=O)CN(C)C(=O)[C@@H]1Cc1ccc(C(F)(F)F)cc1 [PP0199] ([NMeAbu(4,4,4-F3)]I[Sar][Sar][NPrPhe(4-CF3)][Sar][hPhe(3-Cl-4-CF3)][Pro(4,4-F2)][Ac5c][NMeGly(cPent)][NMeD]-Morpholide; lactam N-11) | 0.13 nM | – | – | B (a compound having 3 or more and less than 10 is denoted as B) | C (A compound having a KD ratio of 0.1 or more and less than 3 is denoted as C)
5 | CC[C@H](C)[C@@H]1NC(=O)[C@H](CC(C)C)N(C)C(=O)C[C@@H](C(=O)N2CCOCC2)N(C)C(=O)[C@H](C2CCCC2)N(C)C(=O)C2(CCCC2)NC(=O)[C@@H]2CCCN2C(=O)[C@H](CCc2ccc(C(F)(F)F)c(Cl)c2)NC(=O)CN(C)C(=O)[C@H](Cc2ccc(C)cc2)N(CCC(F)(F)F)C(=O)CN(C)C(=O)CN(C)C1=O [PP0103] ([NMeL]I[Sar][Sar][X36][Sar][hPhe(3-Cl-4-CF3)]P[Ac5c][NMeGly(cPent)][NMeD]-Morpholide; lactam N-11) | 0.15 nM | – | – | B (a compound having 3 or more and less than 10 is denoted as B) | C (A compound having a KD ratio of 0.1 or more and less than 3 is denoted as C)
